ChEMBL document CHEMBL1157113, “Insulin-like growth factor-1 receptor (IGF-1R) kinase inhibitors: SAR of a series of 3-[6-(4-substituted-piperazin-1-yl)-4-methyl-1H-benzimidazol-2-yl]-1H-pyridine-2-one” (Bioorg Med Chem Lett, 2010)

Assays:
Assay type in all cases: ADME, organism-based
[1] = AUC (0 to 4 hrs) in mouse at 20 mg/kg; set-up: time < 4 hr, dose 20 mg/kg; settings: plasma
[2] = Total clearance in mouse at 5 mg/kg, iv and 75 mg/kg, po; settings: in vivo
[3] = Volume of distribution at steady state in mouse at 5 mg/kg, iv and 75 mg/kg, po; settings: in vivo, read-out: Vdss
[4] = Total clearance in rat at 5 mg/kg, iv and 75 mg/kg, po; settings: in vivo
[5] = Volume of distribution at steady state in rat at 5 mg/kg, iv and 75 mg/kg, po; settings: in vivo, read-out: Vdss
[6] = Oral bioavailability in mouse at 75 mg/kg; settings: in vivo
[7] = Half life in mouse at 5 mg/kg, iv and 75 mg/kg, po; settings: in vivo
[8] = Oral bioavailability in rat at 75 mg/kg; settings: in vivo
[9] = Half life in rat at 5 mg/kg, iv and 75 mg/kg, po; settings: in vivo

| Compound | AUC(0-t) at 4 h [1] [µM·h] | further results |
| --- | --- | --- |
| CCOC(=O)N1CCN(c2cc(C)c3nc(-c4c(NC[C@@H](O)c5cccc(Cl)c5)cc[nH]c4=O)[nH]c3c2)CC1 | 25.3 |  |
| Cc1cc(N2CCNCC2)cc2[nH]c(-c3c(NC[C@@H](O)c4cccc(Cl)c4)cc[nH]c3=O)nc12 | 26.5 |  |
| COC(=O)N1CCN(c2cc(C)c3nc(-c4c(NC[C@@H](O)c5cccc(Cl)c5)cc[nH]c4=O)[nH]c3c2)CC1 | 57.1 |  |
| Cc1cc(N2CCN(S(C)(=O)=O)CC2)cc2[nH]c(-c3c(NC[C@@H](O)c4cccc(Cl)c4)cc[nH]c3=O)nc12 | 7.2 |  |
| Cc1cc(N2CCN(C(=O)CCCF)CC2)cc2[nH]c(-c3c(NC[C@@H](O)c4cccc(Cl)c4)cc[nH]c3=O)nc12 | 4.5 |  |
| Cc1cc(N2CCN(C(=O)OC(C)(C)C)CC2)cc2[nH]c(-c3c(NC[C@@H](O)c4cccc(Cl)c4)cc[nH]c3=O)nc12 | 8.3 |  |
| CC(=O)N1CCN(c2cc(C)c3nc(-c4c(NC[C@@H](O)c5cccc(Cl)c5)cc[nH]c4=O)[nH]c3c2)CC1 | 3.1 |  |
| Cc1cc(N2CCOCC2)cc2[nH]c(-c3c(NC[C@@H](O)c4cccc(Cl)c4)cc[nH]c3=O)nc12 | 50 |  |

The next lines start with results.

| AUC(0-t) at 4 h [1] [µM·h] | Compound | further results |
| --- | --- | --- |
| 1 | CCN1CCN(c2cc(C)c3nc(-c4c(NC[C@@H](O)c5cccc(Cl)c5)cc[nH]c4=O)[nH]c3c2)CC1 |  |
| 11.4 | Cc1cc(N2CCN(CCCF)CC2)cc2[nH]c(-c3c(NC[C@@H](O)c4cccc(Cl)c4)cc[nH]c3=O)nc12 |  |
| 10.3 | Cc1cc(N2CCN(CC#N)CC2)cc2[nH]c(-c3c(NC[C@@H](O)c4cccc(Cl)c4)cc[nH]c3=O)nc12 |  |
| 1.6 | CNC(=O)CN1CCN(c2cc(C)c3nc(-c4c(NC[C@@H](O)c5cccc(Cl)c5)cc[nH]c4=O)[nH]c3c2)CC1 |  |
| 11.1 | COCCN1CCN(c2cc(C)c3nc(-c4c(NC[C@@H](O)c5cccc(Cl)c5)cc[nH]c4=O)[nH]c3c2)CC1 | clearance [2]: 25.2 mL/min/kg; Vd [3]: 4.9 L/kg; clearance [4]: 27.8 mL/min/kg; Vd [5]: 2.9 L/kg; bioavailability [6]: 26%; half-life [7]: 2.9 h; bioavailability [8]: 26%; half-life [9]: 1.9 h |
| 1.4 | Cc1cc(N2CCN(CC(=O)NCCF)CC2)cc2[nH]c(-c3c(NC[C@@H](O)c4cccc(Cl)c4)cc[nH]c3=O)nc12 |  |
| 3.4 | Cc1cc(N2CCN(C)CC2)cc2[nH]c(-c3c(NC[C@@H](O)c4cccc(Cl)c4)cc[nH]c3=O)nc12 |  |
| 17.7 | Cc1cc(N2CCN(CCF)CC2)cc2[nH]c(-c3c(NC[C@@H](O)c4cccc(Cl)c4)cc[nH]c3=O)nc12 |  |
| 22.1 | Cc1cc(N2CCN(CCC#N)CC2)cc2nc(-c3c(NC[C@@H](O)c4cccc(Cl)c4)cc[nH]c3=O)[nH]c12 |  |
